Data published in ChEMBL document CHEMBL4739717, “Methods of treating cartilage disorders through inhibition of clk and dyrk” (2020).

Key:
[1] = Induction of chondrogenesis in human MSC assessed as maximum activity at 10 nM incubated for 6 days by rhodamine B and Nile red staining based imaging analysis relative to control; format: functional; details: BMMSC, 144 h, time 6 day
[2] = Effect on Wnt signaling pathway in human SW480 cells harbouring TCF/LEF luciferase reporter gene and SP5-Luc reporter gene incubated for 36 to 48 hrs by luminescence assay; format: cell-based
[3] = biological target: Dual specificity tyrosine-phosphorylation-regulated kinase 1A (Homo sapiens, UniProt Q13627); assay: Inhibition of recombinant DYRK1A (unknown origin) using Ser/Thr 18 peptide as substrate incubated for 1 hr in presence of ATP by FRET assay
[4] = Induction of chondrogenesis in human MSC assessed as incubated for 6 days by rhodamine B and Nile red staining based imaging analysis; format: functional; details: bmmsc
[5] = Inhibition of IL1-beta induced MMP3 expression levels in human chondrocytes assessed as MMP3 levels incubated for 2hrs followed by IL1-beta stimulation and measured after overnight incubation by LANCE assay; format: functional, cell-based; details: Chondrocyte
[6] = Induction of chondrogenesis in human MSC assessed as maximum activity at 30 nM incubated for 6 days by rhodamine B and Nile red staining based imaging analysis relative to control; format: functional; details: BMMSC, 144 h, time 6 day

| EC50 [2] | EC50 [3] | EC50 [4] | EC50 [5] | SMILES | Emax at 0.01 µM [1] | Emax at 0.03 µM [6] |
| --- | --- | --- | --- | --- | --- | --- |
| 0.0455 µM | 0.002 µM | 0.01 µM | 3 µM | Cc1ccc(-c2nccc3[nH]c(-c4n[nH]c5ccc(-c6cncc(N)c6)nc45)nc23)s1 | 72.6% |  |
| 3.89 µM | 0.043 µM |  |  | CN(C)Cc1cncc(-c2cc3c(-c4cc5c(N6CCN(C)CC6)nccc5[nH]4)n[nH]c3cn2)c1 |  | 13.9% |
| 0.025 µM | 0.059 µM |  |  | CC(C)CC(=O)Nc1ccncc1NC(=O)c1n[nH]c2ccc(-c3cncc(CN4CCCCC4)c3)cc12 |  | 45.4% |
| 0.098 µM | 0.016 µM |  |  | c1csc(-c2cncc3[nH]c(-c4n[nH]c5ncc(-c6cncc(CNCC7CCCC7)c6)cc45)nc23)c1 |  | 74.6% |
| 1.85 µM | 0.004 µM |  |  | c1cc2cc(-c3n[nH]c4ccc(-c5cncc(OCCN6CCCC6)c5)cc34)[nH]c2cn1 |  | 44.6% |
| 0.012 µM | 0.083 µM |  |  | c1cncc(-c2cnc3[nH]nc(-c4nc5c(-c6cccs6)cccc5[nH]4)c3c2)c1 |  | 41.6% |
| 1.35 µM | 0.028 µM |  |  | Fc1cccc(-c2nccc3[nH]c(-c4n[nH]c5ccc(-c6cccnc6)nc45)cc23)c1 |  | 44.8% |
| > 10 µM | 0.008 µM |  |  | Nc1cncc(-c2ccc3[nH]nc(-c4cc5c(-c6ccncc6)ccnc5[nH]4)c3n2)c1 |  | 26.9% |
| 0.271 µM | 0.006 µM |  |  | O=C(Nc1cncc(-c2ccc3[nH]nc(-c4cc5cccnc5[nH]4)c3c2)c1)C1CCCC1 |  | 30.2% |
| 0.083 µM | 0.002 µM |  |  | CN1CCN(c2cncc3[nH]c(-c4n[nH]c5ccc(-c6cncc(N7CCOCC7)c6)cc45)nc23)CC1 |  | 63.8% |
| > 10 µM | 0.005 µM |  |  | c1cncc(-c2cc3c(-c4cc5cccnc5[nH]4)n[nH]c3cn2)c1 |  | 27.6% |
| > 10 µM | 0.008 µM |  |  | CC(C)(C)C(=O)Nc1cncc(-c2cc3c(-c4cc5c(-c6ccncc6)cncc5[nH]4)n[nH]c3cn2)c1 |  | 30.4% |
| 0.102 µM | 0.002 µM |  |  | Nc1cncc(-c2ccc3[nH]nc(-c4cc5cccnc5[nH]4)c3c2)c1 |  | 35.5% |
| 3.73 µM | 0.002 µM | 0.01 µM | 3 µM | CCNCc1cncc(-c2cc3c(-c4cc5c(-c6cccnc6)cncc5[nH]4)n[nH]c3cn2)c1 | 67.6% |  |
| 0.18 µM | 0.013 µM | 0.01 µM |  | CCC(=O)Nc1cncc(-c2cnc3[nH]nc(-c4cc5c(-c6cccnc6)cccc5[nH]4)c3c2)c1 | 671% |  |
| > 10 µM | 0.018 µM | 0.01 µM |  | CCCCC(=O)Nc1cncc(-c2ccc3[nH]nc(-c4nc5c(-c6cc(F)cc(NCCN(C)C)c6)ccnc5[nH]4)c3n2)c1 | 71.4% |  |
| 0.0019 µM | 0.058 µM | 2.7 µM |  | Cc1ccc(-c2nccc3[nH]c(-c4n[nH]c5ccc(-c6cncc(N)c6)cc45)nc23)s1 | 163% |  |
| > 10 µM | 0.039 µM | 0.01 µM |  | CCCC(=O)Nc1cncc(-c2cc3c(-c4cc5c(-c6cc(F)cc(NCCN(C)C)c6)ccnc5[nH]4)n[nH]c3cn2)c1 | 162% |  |
| > 10 µM | 0.024 µM | 0.01 µM |  | c1cncc(-c2ccc3[nH]nc(-c4cc5cccnc5[nH]4)c3n2)c1 | 65.9% |  |
| > 10 µM | 0.029 µM | 0.01 µM |  | CCCCC(=O)Nc1cncc(-c2cc3c(-c4cc5c(-c6cccnc6)ccnc5[nH]4)n[nH]c3cn2)c1 | 52.8% |  |
| 1.37 µM | 0.069 µM | 0.03 µM |  | CN(C)Cc1cncc(-c2ccc3[nH]nc(-c4cc5c(-c6ccccc6F)cncc5[nH]4)c3n2)c1 | 50.6% |  |
| > 10 µM | 0.039 µM | 0.03 µM |  | Cc1cn(-c2nccc3[nH]c(-c4n[nH]c5ccc(-c6cncc(NC(=O)C(C)(C)C)c6)nc45)nc23)cn1 | 69.7% |  |
| 0.572 µM | 0.044 µM | 0.01 µM |  | CC(C)CC(=O)Nc1cncc(-c2cc3c(-c4cc5c(-c6cccs6)nccc5[nH]4)n[nH]c3cn2)c1 | 81.4% |  |
| 0.291 µM | 0.01 µM | 0.01 µM |  | Fc1ccc(-c2nccc3[nH]c(-c4n[nH]c5cnc(-c6cncc(CN7CCC(F)(F)C7)c6)cc45)cc23)cc1 | 61.2% |  |
| > 10 µM | 0.026 µM | 0.01 µM |  | CCNCc1cncc(-c2cnc3[nH]nc(-c4cc5c(-c6cccnc6)ccnc5[nH]4)c3c2)c1 | 91.8% |  |

| EC50 [2] | EC50 [3] | EC50 [4] | EC50 [5] | SMILES | Emax at 0.01 µM [1] | Emax at 0.03 µM [6] |
| --- | --- | --- | --- | --- | --- | --- |
| > 10 µM | 0.003 µM |  | 3 µM | CC(C)CC(=O)Nc1cncc(-c2cc3c(-c4nc5c(-c6cc(F)cc(OCCN7CCCC7)c6)cncc5[nH]4)n[nH]c3cn2)c1 | 20.3% |  |
| 1.98 µM | 0.041 µM | 0.01 µM |  | Fc1ccccc1-c1nccc2[nH]c(-c3n[nH]c4cnc(-c5cncc(CN6CCCC6)c5)cc34)cc12 | 69.4% |  |
| 3.68 µM | 0.031 µM | 0.01 µM |  | c1csc(-c2nccc3[nH]c(-c4n[nH]c5cnc(-c6cncc(CN7CCCCC7)c6)cc45)cc23)c1 | 59% |  |
| 1.85 µM | 0.054 µM | 0.03 µM |  | CN(C)Cc1cncc(-c2cc3c(-c4cc5c(-c6cccc(F)c6)nccc5[nH]4)n[nH]c3cn2)c1 | 60% |  |
| 1.27 µM | 0.015 µM | 0.03 µM |  | CC(C)Nc1cncc(-c2ccc3[nH]nc(-c4nc5c(-c6cccnc6)cncc5[nH]4)c3n2)c1 | 64.6% |  |
| > 10 µM | 0.027 µM | 0.03 µM |  | CS(=O)(=O)NCc1cc(F)cc(-c2nccc3[nH]c(-c4n[nH]c5cnc(-c6cncc(CNCC7CCCC7)c6)cc45)cc23)c1 | 52.3% |  |
| 0.42 µM | 0.075 µM | 0.01 µM |  | CN(C)CCNc1cc(F)cc(-c2cccc3[nH]c(-c4n[nH]c5ccc(-c6cncnc6)nc45)cc23)c1 | 181% |  |
| 3.76 µM | 0.029 µM | 0.01 µM |  | CCNCc1cncc(-c2ccc3[nH]nc(-c4cc5cccnc5[nH]4)c3n2)c1 | 79.9% |  |
| 0.061 µM |  | 0.03 µM | 0.0002 µM | CC(C)Oc1ccc(NC(=O)c2n[nH]c3ccc(-c4cncc(CN5CC6CC(C5)O6)c4)cc23)cn1 | 75.7% |  |
| 0.275 µM | 0.077 µM | 0.01 µM |  | CC(C)C(=O)Nc1cncc(-c2cc3c(-c4cc5c(-c6cccnc6)cccc5[nH]4)n[nH]c3cn2)c1 | 201% |  |
| 0.041 µM | 0.017 µM | 0.01 µM |  | CC(C)Oc1ccc(NC(=O)c2n[nH]c3ccc(-c4cncc(CN5CCCCC5)c4)cc23)cn1 | 51.9% |  |
| > 10 µM | 0.02 µM | 0.01 µM |  | c1cc(-c2cncc3[nH]c(-c4n[nH]c5ccc(-c6cncc(CN7CCCCC7)c6)nc45)cc23)ccn1 | 97.1% |  |
| 0.133 µM | 0.002 µM | 0.03 µM |  | c1cncc(-c2cc3c(-c4cc5cnccc5[nH]4)n[nH]c3cn2)c1 | 62% |  |
| 0.8 µM | 0.072 µM | 0.03 µM |  | O=C(Nc1cncc(-c2ccc3[nH]nc(-c4nc5c(-c6ccc(Cl)s6)cncc5[nH]4)c3n2)c1)C1CCC1 | 67.9% |  |
| 1.48 µM | 0.072 µM | 0.01 µM |  | CC(C)CC(=O)Nc1cncc(-c2ccc3[nH]nc(-c4nc5c(-c6ccc(Cl)s6)cncc5[nH]4)c3n2)c1 | 60.6% |  |
| 1.05 µM | 0.048 µM | 0.03 µM |  | CN(C)Cc1cncc(-c2ccc3[nH]nc(-c4nc5c(-c6cccc(F)c6)nccc5[nH]4)c3n2)c1 | 75.6% |  |
| 0.435 µM | 0.044 µM | 0.01 µM |  | CC(C)Nc1cncc(-c2cnc3[nH]nc(-c4cc5c(-c6ccccc6F)nccc5[nH]4)c3c2)c1 | 75.8% |  |
| > 10 µM | 0.019 µM | 0.01 µM |  | CC(C)Nc1cncc(-c2cc3c(-c4cc5c(-c6cccnc6)ccnc5[nH]4)n[nH]c3cn2)c1 | 77% |  |
| 1.67 µM | 0.004 µM | 0.01 µM |  | c1cnc2[nH]c(-c3n[nH]c4ccc(-c5cncc(CN6CCCCC6)c5)cc34)cc2c1 | 50.8% |  |
| 1.07 µM | 0.04 µM | 0.03 µM |  | Nc1cncc(-c2ccc3[nH]nc(-c4nc5c(-c6ccccc6F)cccc5[nH]4)c3n2)c1 | 81.8% |  |
| > 10 µM | 0.055 µM | 0.01 µM |  | CCCCC(=O)Nc1cncc(-c2ccc3[nH]nc(-c4nc5c(-c6cc(F)cc(NCCN(C)C)c6)cncc5[nH]4)c3n2)c1 | 64.7% |  |
| 1.28 µM | 0.043 µM | 0.01 µM |  | CN(C)Cc1cncc(-c2ccc3[nH]nc(-c4cc5c(-c6cccc(F)c6)cncc5[nH]4)c3c2)c1 | 193% |  |
| 0.578 µM | 0.063 µM | 0.01 µM |  | c1ccc(CNCc2cncc(-c3ccc4[nH]nc(-c5cc6c(-c7cccs7)cncc6[nH]5)c4c3)c2)cc1 | 57.4% |  |
| 2.8 µM | 0.004 µM | 0.01 µM |  | CN1CCN(c2nccc3[nH]c(-c4n[nH]c5cnc(-c6cncc(NC(=O)c7ccccc7)c6)cc45)cc23)CC1 | 67% |  |
